# Measured values taken from US20090018118A1, “HETEROCYCLIC COMPOUNDS” (priority 2005, published 2009).
# Where a name gives a salt, the structure may show the parent alone. Read-outs that look alike come from different tables or passages of the source.
# Assays:
# [1] = test system: cholesterol biosynthesis in HepG2 cells; assay: Metabolic labeling of HepG2 cells with [3H]acetate; radio-HPLC sterol profile (inhibition of cholesterol biosynthesis); type: cell-based, human; conditions: HepG2; for activity at 10 µM: Homo sapiens, 24 h, Table I, sterol level normalized to normal medium (1.00), mean of 4 experiments; for activity at 10 µM / FF-MAS / cholesterol / desmosterol / lanosterol / lathosterol / zymosterol+7-dehydrocholesterol: 10 μM compound; for FF-MAS / cholesterol / desmosterol / lanosterol / lathosterol / zymosterol+7-dehydrocholesterol: Table II (arranged by sterol profile), normalized to normal medium (1.00)
# Experimental: In accordance with the aims of the invention, the effect of the novel compounds on inhibition of cholesterol biosynthesis is assessed. An ex vivo method of metabolic labeling of immortal human hepatocytes is employed. The radioactively labeled early precursor of cholesterol [3H]acetate is added to cells with or without addition of an active new compound.
# An ex vivo method of metabolic labeling of immortal human hepatocytes is employed. The radioactively labeled early precursor of cholesterol [3H]acetate is added to cells with or without addition of an active compound.
# Cell culture incubation with potential inhibitors of cholesterol biosynthesis and statins Human hepatoma cell line (HepG2-ATCC No. HB-8065) is split in the recommended ratio (1:2-3) into 75 cm^2 cell flasks using two flasks per experimental condition. Cells are incubated at 37° C. with 5% CO2 in Dulbeco's modified Eagle medium (DMEM high (Sigma)) containing 5% calf serum (Sigma) and 1% L-glutamine (Sigma). After 24-hours-culturing in the growth medium, the medium is replaced with the one supplemented with 10 μM concentration of a LK compound, potential inhibitor of cholesterol biosynthesis. 10 μM solution of atorvastatin, inhibitor of HMG-CoA reductase, serves as a positive control.
# After 24 hours the growth medium is changed and [^3H]acetate (NEN™ Life Science Products) added in a concentration of 40 μCi per ml of the medium (400 μCi per flask). After 4 hours cells are harvested using 2 ml of trypsin (Sigma) and the cell pellet is resuspended in 1 ml of distilled water. Cells are homogenized using the freeze and thaw method. From cell homogenate sterols are extracted and protein concentration determined using the Bio-Rad reagent.
# Homogenates are transferred into 4 ml glass vial and sterols are extracted in 3 ml of extraction solution (75% n-heptane: 25% isopropanol (vol./vol.)) with ergosterol as an internal standard. For better extraction 100 μl of 0.3M NaH2PO4 (pH=1.0) is added. Closed vials are vigorously shaken (1800 rpm) for 2 hours. After extraction procedure vials are centrifuged (2000 g, 10 min) and the organic phase is transferred to fresh conical glass tubes. Extraction procedure is repeated using 1 ml of extraction solution for 15 min. Organic phases are pooled. Primary extracts are dried in vacuum centrifuge, redissolved in 3 ml of n-heptane, and incubated for 10 min at room temperature with mild shaking. After centrifugation (10 min, 2000 g) extracts are transferred into fresh glass tubes and stored in dark and cold.
# The organic phase is dried, reconstituted in mobile phase for reversed phase HPLC separation and loaded onto a-HPLC column, Prism-RPN, 5 μm, 250×4,6 mm running in 100% acetonitrile at 1.00 ml/min at 40° C. temperature. Scintillation liquid is added after UV detection at 30 ml/h, at room temperature, to evaluate tritium labeled sterols on a radio detector.
# Sterols are determined by comparing the eluted peaks with runs of commercial standards of lanosterol, ergosterol, desmosterol, zymosterol, 7-dehydrocholesterol, lathosterol and cholesterol or laboratory standards (FF-MAS-4,4-Dimethylcholesta-8(9),14,24-triene-3β-ol- and T-MAS-4,4-Dimethylcholesta8(9),24,diene-3,6-ol, Laboratory of Reproductive Biology, The Juliane Marie Center for Children, Women and Reproduction, University Hospital of Copenhagen, DK-2100 Copenhagen, Denmark). Results were normalized on ergosterol quantity and protein concentration. Results are presented as a mean from 4 separated experiments.
# The influence of a 10 μM solution of novel LK-substances on cholesterol biosynthesis in the assay on HepG2 cells is presented in Table I. Compounds are arranged according to the building blocks, three of them are 2-pyridineethanols, 2-pyridineethylpiperazines and pyridinemethylpiperazines.
# Normal medium pertains to cell cultures without a compound of the invention. Its sterol levels were used for normalization. 10 μM solution of atorvastatin serves as a positive control.
# [2] = read-out: zymosterol+7-dehydrocholesterol
melting point [°C],SMILES,activity at 10 µM ([1]; read-out: FF-MAS) [%],activity at 10 µM ([1]; read-out: cholesterol) [%],activity at 10 µM ([1]; read-out: desmosterol) [%],activity at 10 µM ([1]; read-out: lanosterol) [%],activity at 10 µM ([1]; read-out: lathosterol) [%],"activity at 10 µM [1, 2] [%]",FF-MAS [1],cholesterol [1],desmosterol [1],lanosterol [1],lathosterol [1],zymosterol+7-dehydrocholesterol [1],FF-MAS accumulation (in words) ([1]; 10 μM),"sterol profile (in words) ([1]; 10 μM, preferred profile: lowered cholesterol, no accumulation of lanosterol and post-lanosterol intermediates)"
175 to 177,"FC(F)(F)c1cnc(N2CCCN(CCc3ccccc3)CC2)c(Cl)c1 (as salt: hydrobromid) [LK-9115, 1-(3-Chloro-5-(trifluoromethyl)pyridine-2-yl)-4-phenethyl-1,4-diazepane trihydrobromide]",–,–,–,–,–,–,–,–,–,–,–,–,–,–
219 to 222,"c1ccc(CCN2CCN(CCc3cccnc3)CC2)cc1 (as salt: hydrobromid) [LK-9100, 1-Phenethyl-4-(2-(pyridine-3-yl)ethyl)piperazine trihydrobromide]",–,–,–,–,–,–,–,–,–,–,–,–,–,–
253 to 255,"Clc1ccc(CCN2CCN(CCc3ccncc3)CC2)cc1Cl (as salt: hydrobromid) [LK-9135, 1-(3,4-Dichlorophenethyl)-4-(2-(pyridin-4-yl)ethyl)piperazine trihydrobromide]",–,–,–,–,–,–,–,–,–,–,–,–,–,–
212 to 213,"Fc1ccc(CCN2CCN(CCc3ccccn3)CC2)cc1F (as salt: hydrobromid) [LK-9138, 1-(3,4-Difluorophenethyl)-4-(2-(pyridin-2-yl)ethyl)piperazine trihydrobromide]",–,–,–,–,–,–,–,–,–,–,–,–,–,–
220 to 223,"OC(CN1CCN(Cc2ccc(F)cc2)CC1)c1cccnc1 (stereo not shown) (as salt: hydrobromid) [LK-9148, 2-(4-(4-Fluorobenzyl)piperazine-1-yl)-1-(pyridine-3-yl)ethanol trihydrobromide]",–,–,–,–,–,–,–,–,–,–,–,–,–,–
207 to 209,"Clc1ccc(CCN2CCN(CCc3ccccn3)CC2)cc1Cl (as salt: hydrobromid) [LK-9137, 1-(3,4-Dichlorophenethyl)-4-(2-(pyridin-2-yl)ethyl)piperazine trihydrobromide]",–,–,–,–,–,–,–,–,–,–,–,–,–,–
262 to 264,"c1ccc(CCN2CCN(CCCc3cccnc3)CC2)cc1 (as salt: hydrobromid) [LK-9140, 1-Phenethyl-4-(3-(pyridine-3-yl)propyl)piperazine trihydrobromide]",–,–,–,–,–,–,–,–,–,–,–,–,–,–
178 to 181,"OC(CN1CCN(CCc2ccccc2)CC1)c1cccnc1 (stereo not shown) (as salt: hydrobromid) [LK-980, 2-(4-Phenethylpiperazine-1-yl)-1-(pyridine3-yl)-1-ethanol trihydrobromide]",–,–,–,–,–,–,–,–,–,–,–,–,–,–
–,"COc1ccc(CN2CCN(CCc3ccccc3)CC2)cn1 [LK-9106, 1-((6-Methoxypyridin-3-yl)methyl)-4-phenethylpiperazine trihydrobromide]",200,0,0,52,31,46,2.00,0.00,0.00,0.52,0.31,0.46,–,–
–,"OC(CN1CCN(Cc2ccc(F)cc2)CC1)c1cccnc1 (stereo not shown) [LK-9148, 2-(4-(4-Fluorobenzyl)piperazine-1-yl)-1-(pyridine-3-yl)ethanol trihydrobromide]",125,14,38,80,65,144,1.25,0.14,0.38,0.80,0.65,1.44,–,–
–,"c1ccc(CCN2CCN(Cc3ccc(N4CCOCC4)nc3)CC2)cc1 [LK-9109B, 4-(5-((4-Phenethylpiperazin-1-yl)methyl)pyridine-2-yl)morpholine]",650,0,29,95,9,100,6.50,0.00,0.29,0.95,0.09,1.00,notably accumulate FF-MAS,–
–,"OC(CN1CCN(CCc2ccccc2)CC1)c1cccnc1 (stereo not shown) [LK-980, 2-(4-Phenethylpiperazine-1-yl)-1-(pyridine3-yl)-1-ethanol trihydrobromide]",254,5,0,96,49,102,2.54,0.05,0.00,0.96,0.49,1.02,–,–
–,"FC(F)(F)c1ccc(CN2CCN(CCc3ccccc3)CC2)cn1 [LK-9107, 1-Phenethyl-4-((6(trifluoromethyl)pyridine-3-yl)methyl)piperazine trihydrobromide]",129,0,0,36,11,20,1.29,0.00,0.00,0.36,0.11,0.20,–,meets these criteria in considerable extent
–,"OC(CN1CCN(CCc2ccccc2)CC1)c1ccncc1 (stereo not shown) [LK-9110B, 2-(4-Phenethylpiperazine-1-yl)-1-(pyridine-4-yl)ethanol]",374,0,17,96,78,137,3.74,0.00,0.17,0.96,0.78,1.37,–,–
215 to 217,"COc1ccc(CN2CCN(CCc3ccccc3)CC2)cn1 (as salt: hydrobromid) [LK-9106, 1-((6-Methoxypyridin-3-yl)methyl)-4-phenethylpiperazine trihydrobromide]",–,–,–,–,–,–,–,–,–,–,–,–,–,–
225 to 228,"FC(F)(F)c1ccc(CN2CCN(CCc3ccccc3)CC2)cn1 (as salt: hydrobromid) [LK-9107, 1-Phenethyl-4-((6(trifluoromethyl)pyridine-3-yl)methyl)piperazine trihydrobromide]",–,–,–,–,–,–,–,–,–,–,–,–,–,–
–,"c1ccc(CCN2CCN(CCc3ccncc3)CC2)cc1 [LK-9118B, 1-Phenethyl-4-(2-(pyridine-4-yl)ethyl)piperazine]",350,0,47,146,23,90,3.50,0.00,0.47,1.46,0.23,0.90,–,–
198 to 201,"OC(CN1CCN(c2ccc(F)cc2)CC1)c1cccnc1 (stereo not shown) (as salt: hydrobromid) [LK-9144, 2-(4-(4-Fluorophenyl)piperazine-1-yl)-1-(pyridine-3-yl)ethanol trihydrobromide]",–,–,–,–,–,–,–,–,–,–,–,–,–,–
